# According to patent US20170008888A1 (KYORIN PHARMACEUTICAL CO., LTD., priority 2014, published 2017):
# Test system: human PBMCs
# Assay: Human PBMC TNF-α response to endotoxin (ELISA)
# Assay type: cell-based
# Settings: 0.1 μg/ml LPS 16 h, read-out: EC50 for the inhibition of the human PBMC TNF-α response to endotoxin, ave. ± S.D.
# Protocol: Human PBMCs (Astarte Biologics, Redmond, Wash.) were seeded at 2e6 cells/ml in RPMI 1640 containing 10% (v/v) charcoal-dextran treated, heat inactivated FBS (Omega Scientific, Tarzana, Calif.), 0.05 mM 2-Mercaptoethanol (Sigma-Aldrich, St. Louis, Mo.), and 1×Pen/Strep Amphotericin B (Lonza, Allendale, N.J.). Cells were pre-treated with test compounds (10 μM down by ⅕ in a 4-point serial dilution series) for 1 h at 37° C. in a humidified atmosphere at 5% CO2. Cells were then stimulated with 0.1 μg/ml lipopolysaccharide (LPS) from E. coli 0111:B4 (EMD Millipore, Billerica, Mass.) for 16 h at 37° C. in a humidified atmosphere at 5% CO2. Supernatant was collected and a 25-fold dilution was analyzed for TNF-α concentration using an ELISA kit from Life Technologies (Grand Island, N.Y.) according to the manufacturer's instructions. Absorbance at 450 nm was read using the Synergy 2 multi-detection microplate reader (BioTek Instruments, Winooski, Vt.).
row,Structure (SMILES),EC50 [nM]
1,CN1C(=O)c2ccccc2N(C)c2cc(NC3CCCCC3O)ncc21 (stereo not drawn) [Compound T108],3010
2,CN1C(=O)c2ccccc2N(C)c2cc(N[C@@H]3CCCCC3O)ncc21 (stereo partly drawn) [Compound T109],2160
3,CN1C(=O)c2ccccc2N(C)c2cc(N[C@@H]3CCC[C@H](O)C3)ncc21 [Compound T111],1920
4,CCO[C@@H]1CCCC[C@H]1Nc1cc2c(cn1)N(C)C(=O)c1ccccc1N2C [Compound T112],2360
5,Cc1cccc2c1N(C)c1cc(N[C@H]3CC[C@H](O)CC3)ncc1N(C)C2=O [Compound T121],2990
6,CN1C(=O)c2ccccc2N(C)c2cc(N[C@H]3CC[C@@](C)(O)CC3)ncc21 [Compound T123],2100
7,CN1C(=O)c2ccccc2N(C)c2cc(NC3CCN(S(=O)(=O)CCN4CCCC4)CC3)ncc21 [Compound T130],2460
8,CN1C(=O)c2ccccc2N(C)c2cc(N[C@H]3C[C@@H](O)C3)ncc21 [Compound T131],6060
9,CN1C(=O)c2ccccc2N(C)c2cc(N[C@@H]3CC[C@@H](O)C3)ncc21 [Compound T132],3280
10,CN1C(=O)c2ccccc2N(C)c2cc(N[C@H]3CC[C@H](N)C3)ncc21 [Compound T133],9840
11,CN1C(=O)c2ccccc2N(C)c2cc(N[C@H]3CC[C@@H](O)C3)ncc21 [Compound T134],3680
12,CN1C(=O)c2ccccc2N(C)c2cc(N[C@H]3C[C@H](N)C3)ncc21 [Compound T135],9200
